According to patent US12070467B2, “Method of treating ciliated tissue using CSA micelles” (Brigham Young University, priority 2018, dated 2024):
Several values for one entry are separate records, joined by “and”; a condition that tells them apart may be missing. Identical values can stand only once. Like-named read-outs stand apart in the source and are kept apart here.

How the values were obtained:
[1] = tested on: C. auris CDC 389 biofilm; experiment: Minimum biofilm eradication concentration (MBEC); type: cell-based, Candida auris; settings: 48 h biofilm, 24 h treatment
Description: (§1) Staphylococcus aureus (ATCC 25923) and Pseudomonas aeruginosa (ATCC 47085 (PA01)) were grown from fresh colonies in trypticase soy broth (TSB) and incubated overnight at 37° C. Fungal cultures, Candida albicans (ATCC 90028) and Candida auris (CDC 0382, 0384, 0387, and 0389), were grown overnight in sabouraud dextrose broth (SDB) or Roswell Park Memorial Institute medium (RPMI). Cultures of bacteria and fungi were centrifuged, and pellets were washed three times with phosphate buffered saline (PBS) and further resuspended in fresh PBS. Bacterial cultures were diluted in TSB and fungal cultures were diluted in SDB or RPMI to […] or 10^6 CFU/mL (optical density (OD) readings at 600 nm).
(§2) Inocula (10^6 CFU/mL) of bacterial and fungal strains (P. aeruginosa, S. aureus, C. albicans, and C. auris) were incubated at 37° C. for 48 h in 1 mL of TSB or SDB in 96-well plates. Following incubation, the growth medium was gently removed, and wells were washed three times with sterile PBS. […] Wells, including well edges, were scraped thoroughly with a plastic spatula. Well contents were removed in 1 mL of neutralizing broth (Dey-Engley, Sigma-Aldrich) and placed in a sonicating water bath (Fisher Scientific FS60, 42 kHz, 100 W, Pittsburgh, PA, USA) to disrupt biofilms. After 15 min, the resulting samples were serially diluted, and bacterial samples were plated on TSA while fungal samples were plated on SDA. After 24 h or 48 h of incubation at 37° C., colonies were counted and MBECs were determined. The minimum biofilm eradication concentration (MBEC) was defined as the lowest concentration of antibiotic that prevented bacterial regrowth.

[2] = tested on: C. auris CDC 387 biofilm; experiment: Minimum biofilm eradication concentration (MBEC); type: cell-based, Candida auris; settings: 48 h biofilm, 24 h treatment
Description: as §1, §2

[3] = tested on: S. aureus ATCC 25923 biofilm; experiment: Minimum biofilm eradication concentration (MBEC); type: cell-based, Staphylococcus aureus; settings: 48 h biofilm, 24 h treatment
Description: as §1
as §2, with “After 15 min, the resulting samples were serially diluted, and bacterial samples were plated on TSA while fungal samples were plated on SDA.” left out, “The minimum biofilm eradication concentration (MBEC) was defined as the lowest concentration of antibiotic that prevented bacterial regrowth.” left out

[4] = tested on: cilia on porcine trachea explants; settings: for Number of explants (out of 12) clearing beads, <10 min / Number of explants (out of 12) clearing beads, <20 min / Number of explants (out of 12) clearing beads, <30 min / Number of explants (out of 12), No Clearance: CSA-131 100 μg/mL for 1 h; for Number of explants (out of 12) clearing beads, <20 min: between 10 and 20 min; for Number of explants (out of 12) clearing beads, <30 min: between 20 and 30 min; for Number of explants (out of 12), No Clearance: no clearance (>30 min)
Description: In this example, the effect of CSA compositions with and without micelles was tested using ciliated porcine lung tissue. […] An ex vivo assay was used to evaluate pluronic-containing formulations, and in this assay the beating of cilia can be actively observed. […] This method involves sectioning porcine trachea, supported in a nutrient medium, placing small beads on one side of the explant, and measuring the transfer (clearance) of the beads to the other side of the explants (FIG. 5). […] Twelve explants were used for each test condition, and the results are reported as the number clearing beads in a given amount of time.
Normal healthy porcine trachea and lung tissue was excised very fresh from slaughter. After aseptic collection, whole tissues were transported in a 1:1 mixture of Dulbecco's modified Eagle's medium (DMEM) and RPMI, which was pre-warmed and supplemented with penicillin-streptomycin-glutamine 100× (Hyclone, Logan, UT, USA). Explants were washed by tissue immersion three to four times in warm, fresh DMEM/RPMI media. Explants were maintained by continuous immersion in DMEM/RPMI media in a 5% CO2-95% air mixture in a humidified incubator at 37° C.
Tracheas were washed and extra exterior tissues to the cartilage were removed. Tracheas were opened and cut into approximately 2×1 cm explants consisting of the respiratory mucosa and underlying cartilage. […] Explants were then placed on small circular filter papers, which were placed on top of 1% agarose gel plugs bathed in medium in 6-well plates. […] Five microliters of a suspension of 1 μm diameter polystyrene microsphere beads (Polysciences, Inc., Warrington, PA, USA) were pipetted on one edge of epithelial surfaces and evaluated for their complete clearance (movement) across the surface with categorization of clearance in under 10 min, between 10 and 20 min, between 20 and 30 min, and no clearance (>30 min). Independent replicates were completed for each time point. Outcomes were then counted and a percentage of clearance was determined.

[5] = tested on: C. auris CDC 382; experiment: Minimum inhibitory concentration (MIC), broth microdilution; type: cell-based, Candida auris; settings: 37° C., 18-20 h
Description: as §1
(§3) Minimum inhibitory concentrations (MICs) were measured using the broth microdilution protocol described by the Clinical and Laboratory Standards Institute. […] Aliquots (100 μL) of a prepared inoculum (10^6 CFU/mL for bacteria and […] CFU/mL for fungi) were added, and plates were incubated at 37° C. for 18-20 h. Bacterial or fungal growth was visually observed to determine the MICs. Negative and positive controls were included for each set of MIC measurements. For studies with pluronic, the surfactant was added at 4% and 5% to the initial inocula in each experiment. Measurements were performed in triplicate for all susceptibility tests.

[6] = tested on: C. auris CDC 384; experiment: as above; type: cell-based, Candida auris; settings: 37° C., 18-20 h
Description: as §1, §3

[7] = tested on: C. auris CDC 389; experiment: as above; type: cell-based, Candida auris; settings: 37° C., 18-20 h
Description: as §1, §3

[8] = tested on: C. auris CDC 387; experiment: as above; type: cell-based, Candida auris; settings: 37° C., 18-20 h
Description: as §1, §3

[9] = tested on: biofilms of S. aureus (ATCC 25923), P. aeruginosa (ATCC 47085), C. albicans (ATCC 90028), C. auris (CDC 384); experiment: Antibiofilm colorimetric (XTT) assay, percent survival (FIG. 3); type: cell-based; settings: 24 h, p<0.05 relative to controls
Description: Biofilm formation by selected bacterial and fungal strains was quantified by measuring metabolic activity within biofilms using 2,3-bis-(2-methoxy-4-nitro-5-sulfophenyl)-2H-tetrazolium-5-carboxanilide (XTT). Biofilms were formed in 96-well plates and incubated for 48 h at 37° C. […] After incubation, the wells were carefully washed with PBS. A solution of 10 mM menadione in 100% acetone was added to an XTT solution (0.5 mg/mL) and mixed. An aliquot of the XTT/menadione solution (100 μL) was added to each well. Each plate was then wrapped in aluminum foil and incubated for 2-3 h at 37° C. To prepare to read the optical density, aliquots of the supernatant (70 μL) were removed from each well. Using a microtiter plate reader, colorimetric changes were measured at 490 nm. […] (control). To corroborate the antibiofilm data from counting bacterial and fungal colonies, a colorimetric assay was performed to quantify biofilms remaining on surfaces after treatment. Results were normalized to untreated controls. […] Antibiofilm results determined through colorimetric (XTT) assay represented as percent survival. […]

With CCCCCCCCCCCCNCCC[C@@H](C)[C@H]1CC[C@H]2[C@@H]3[C@H](OCCCN)C[C@@H]4C[C@H](OCCCN)CC[C@]4(C)[C@H]3C[C@H](OCCCN)[C@]12C.Cl.Cl.Cl.Cl [CSA-131] as the molecule, how does the MBEC [1] read?
Its MBEC is 48 µg/mL.

What about the MBEC [2] of the same molecule?
The MBEC was 64 µg/mL.

And the MBEC [3]?
The MBEC was 100 µg/mL.

What about the “Number of explants (out of 12) clearing beads, <10 min” value (“Number of explants … <10 min” below) ([4]; 0% pluronic) of the same molecule?
Its value is 3/12.

What about the “Number of explants (out of 12) clearing beads, <20 min” value (shortened to “Number of explants … <20 min”) ([4]; 0% pluronic) of the same molecule?
The value was 2/12.

What about the “Number of explants (out of 12) clearing beads, <30 min” value (“Number of explants … <30 min” for short) ([4]; 0% pluronic) of the same molecule?
The value was 1/12.

And the “Number of explants (out of 12), No Clearance” value ([4]; 0% pluronic)?
Its value is “six of 12 and 6/12”.

And the “Number of explants … <10 min” value ([4]; 1% pluronic)?
Its value is 4/12.

And the “Number of explants … <20 min” value ([4]; 1% pluronic)?
The value was 2/12.

And the “Number of explants … <30 min” value ([4]; 1% pluronic)?
Its value is 1/12.

What about the “Number of explants (out of 12), No Clearance” value ([4]; 1% pluronic) of the same molecule?
The value was 5/12.

What about the “Number of explants … <10 min” value ([4]; 2% pluronic) of the same molecule?
The value was 7/12.

And the “Number of explants … <20 min” value ([4]; 2% pluronic)?
Its value is 3/12.

And the “Number of explants … <30 min” value ([4]; 2% pluronic)?
The value was 2/12.

And the “Number of explants … <10 min” value ([4]; 3% pluronic)?
The value was 7/12.

And the “Number of explants … <20 min” value ([4]; 3% pluronic)?
Its value is 4/12.

And the “Number of explants … <30 min” value ([4]; 3% pluronic)?
Its value is 1/12.

And the “Number of explants … <10 min” value ([4]; 4% pluronic)?
The value was 8/12.

And the “Number of explants … <20 min” value ([4]; 4% pluronic)?
Its value is 4/12.

And the “Number of explants … <10 min” value ([4]; 5% pluronic)?
Its value is 10/12.

And the “Number of explants … <20 min” value ([4]; 5% pluronic)?
The value was 2/12.

What about the “Influence on bead clearance” value ([4]; CSA-131 100 μg/mL with pluronic (4%)) of the same molecule?
Its value is “did not influence bead clearance”.

What about the “Bead clearance / ciliary activity compared with the control” value ([4]; CSA-131 100 μg/mL, 5% pluronic) of the same molecule?
The value was “the same as the control”.

And the MIC [5]?
Its MIC is 0.5 µg/mL.

And the MIC [6]?
The MIC was 0.5 µg/mL.

What about the MIC [7] of the same molecule?
Its MIC is 0.5 µg/mL.

And the MIC [8]?
The MIC was 0.5 µg/mL.

What about the “Biofilm remaining after treatment (XTT, percent survival vs untreated control)” value ([9]; CSA-131 100 μg/mL alone) of the same molecule?
The value was “Significant decreases in biofilm”.

And the “Biofilm remaining after treatment (XTT, percent survival vs untreated control)” value ([9]; CSA-131 100 μg/mL with pluronic, difference to CSA-131 alone not significant)?
The value was “Significant decreases in biofilm”.
